Test results as given in patent US20250186410A1, “DUAL INHIBITORS OF TRYPTOPHAN DIOXYGENASES (IDO1 AND TDO) AND THEIR USE IN THERAPY” (ANTIDO THERAPEUTICS INTERNATIONAL SÀRL, priority 2022, published 2025).

What was measured:
[1] = biological target: Recombinant human IDO1 (rhIDO1) (Homo sapiens (Human), UniProt P14902); test: Enzymatic assay for IDO1 activity; format: biochemical; details: read-out: Isolated IDO1 Enayme Assay IC50
Experimental: Recombinant human IDO1 (rhIDO1) was expressed and purified from cultures of EC538 strain of E. coli transformed with pREP4 and pQE9-IDO plasmid. Reaction mixes were set up in 384-well microplates containing 50 mM phosphate buffer, 10 mM ascorbic, 10 μM methylene blue, 100 μg/mL catalase, 80 μM TRP, 0.01% Tween 20 (v/v) mixed with rhIDO1 (15 μL) at a final concentration of 9 nM in a total volume of 30 μL assay medium. The plates were incubated at 37° C. for 30 min, and the enzymatic reaction was terminated by adding piperidine (200 mM) and heated at 65° C. for 20 min. Fluorescence intensity was read at λex 400 nm and λem 500 nm. Test compounds were dissolved in 100% DMSO and pre-diluted in assay medium prior to adding rhIDO1. IDO1 inhibition (%) was calculated as
All experiments were carried out in triplicates, and statistical Analyses were conducted in Prism v5 (Graphpad Software, Inc., La Jolla, CA, USA).

[2] = biological target: human IDO1 (LLTC-hIDO1 cells) (Homo sapiens (Human), UniProt P14902); test: Cell-based assay for IDO1 inhibition; details: 24 h; read-out: Cellular IDO1 IC50
Sequence of human IDO1 (LLTC-hIDO1 cells) (P14902 whole entry): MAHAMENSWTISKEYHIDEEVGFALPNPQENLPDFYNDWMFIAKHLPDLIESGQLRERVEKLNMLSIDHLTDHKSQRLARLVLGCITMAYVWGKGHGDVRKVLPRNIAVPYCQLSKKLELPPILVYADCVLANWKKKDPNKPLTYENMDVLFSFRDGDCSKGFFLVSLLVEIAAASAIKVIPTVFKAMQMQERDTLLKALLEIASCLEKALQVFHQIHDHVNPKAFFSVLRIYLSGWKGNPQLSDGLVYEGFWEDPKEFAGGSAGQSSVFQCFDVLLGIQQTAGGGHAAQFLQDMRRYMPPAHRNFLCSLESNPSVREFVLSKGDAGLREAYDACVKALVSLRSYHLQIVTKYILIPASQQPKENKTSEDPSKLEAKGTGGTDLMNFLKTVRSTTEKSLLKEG
Experimental: Culture supernatant from each well was then transferred into a fresh, flat-bottomed 96-well plate, mixed with trichloroacetic acid (10% final concentration) and incubated for 20 min at 60° C. Plates were then centrifuged (10 min at 2500 g) and the supernatants were then transferred and mixed 1:1 with 4-(dimethylamino)benzaldehyde (20 mg/mL in acetic acid) in a new plate. The absorbance of each well was read at 480 nm, and the concentration that inhibited 50% cellular enzyme activity was calculated.

[3] = MTT cell viability in the cellular IDO1/TDO experiments; format: cell-based; details: mouse, read-out: Cytotoxicity IC50
Experimental: The viability of the cells in each well in the same experiment was determined using the 3-(4,5-dimethylthiazolyl-2-yl)-2,5-diphenyltetrazolium bromide (MTT) colourimetric assay. After the removal of the supernatant for determination of IDO1 inhibition, the cells were incubated with MTT (500 μg/mL) until crystal formation was observed. Plates were centrifuged for 15 min at 2500 g, and then all the supernatant in then wells was discarded. DMSO (100 μL/well) was added to dissolve the crystals and then the absorbance in each well was measured at 570 nm. Cell viability in each well was expressed as a percentage of untreated controls. Triplicate cultures were used for all experiments unless stated otherwise.
The viability of the cells in each well in the same experiment was determined using the 3-(4,5-dimethylthiazolyl-2-yl)-2,5-diphenyltetrazolium bromide (MTT) colourimetric assay.

[4] = biological target: human TDO (GL261 cells transfected to over-express full length human TDO) (Homo sapiens (Human), UniProt P48775); test: Cell-based assay for TDO inhibition; details: 24 h; read-out: Cellular TDO IC50
Sequence of human TDO (GL261 cells transfected to over-express full length human TDO) (P48775 whole entry): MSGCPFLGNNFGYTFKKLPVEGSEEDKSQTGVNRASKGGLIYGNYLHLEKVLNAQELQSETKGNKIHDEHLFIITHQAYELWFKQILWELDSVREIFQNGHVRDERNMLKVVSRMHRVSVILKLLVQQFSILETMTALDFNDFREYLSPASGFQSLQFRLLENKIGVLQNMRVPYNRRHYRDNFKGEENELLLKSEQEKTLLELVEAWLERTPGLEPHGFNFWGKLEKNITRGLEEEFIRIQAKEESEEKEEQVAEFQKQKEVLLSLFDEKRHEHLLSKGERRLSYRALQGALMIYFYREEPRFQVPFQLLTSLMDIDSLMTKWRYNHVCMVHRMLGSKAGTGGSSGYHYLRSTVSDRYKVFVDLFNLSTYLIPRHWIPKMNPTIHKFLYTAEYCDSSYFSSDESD
Experimental: Culture supernatant from each well was then transferred into a fresh, flat-bottomed 96-well plate, and kynurenine content was determined as described above for the IDO1 assay, and the concentration that inhibited 50% cellular enzyme activity was calculated.

LLC-CR cells = details: cited from earlier work

Sequence of Recombinant human IDO1 (rhIDO1) (P14902 whole entry): as the sequence (P14902 whole entry) above

| SMILES | IC50 [1] [µM] | IC50 [2] [µM] | IC50 [4] [µM] | IC50 at 24 h [3] [µM] | GI50 concentration in resistant clones (LLC-CR cells; LLC-CR cells) [µg/mL] | fold resistance of LLC-CR (LLC-CR cells; LLC-CR versus parental LLC) |
| --- | --- | --- | --- | --- | --- | --- |
| Cc1nc2onc(NC(=O)Nc3cccc(C(F)(F)F)c3)c2c(C)c1Cl [Compound 15B, 1-(5-Chloro-4,6-dimethylisoxazolo[5,4-b]pyridin-3-yl)-3-(3-(trifluoromethyl)phenyl)urea] | > 100 | 1 to 10 |  | > 100 |  |  |
| Nc1noc2nc3ccccc3cc12 [Compound 9, Isoxazolo[5,4-b]quinolin-3-amine] |  |  | 1 to 10 | 10 to 100 |  |  |
| Nc1noc2nc(C(F)(F)F)ccc12 [Compound 47, 6-(Trifluoromethyl)isoxazolo[5,4-b]pyridin-3-amine] | < 1 |  | 1 to 10 | > 100 |  |  |
| Nc1noc2ncncc12 [Compound 12, Isoxazolo[5,4-d]pyrimidin-3-amine] | > 100 |  | 1 to 10 | > 100 |  |  |
| Nc1noc2nc3c(cc12)CCCC3 [Compound 10, 5,6,7,8-Tetrahydroisoxazolo[5,4-b]quinolin-3-amine] | > 100 |  | 10 to 100 | > 100 |  |  |
| COc1cccc(Nc2ccc3c(N)noc3n2)c1 [Compound 95, N^6-(3-Methoxyphenyl)isoxazolo[5,4-b]pyridine-3,6-diamine] | > 100 | 10 to 100 | 10 to 100 | > 100 |  |  |
| N.N.O=C([O-])C1(C(=O)[O-])CCC1.[Pt+2] [carboplatin] |  |  |  |  | 1.3 | 3-5 fold |
| Nc1noc2nc(Cl)ccc12 [Compound 11, 6-Chloroisoxazolo[5,4-b]pyridin-3-amine] |  |  |  | > 100 |  |  |
| Nc1noc2ncc(F)cc12 [Compound 14, 5-Fluoroisoxazolo[5,4-b]pyridin-3-amine] | > 100 | 1 to 10 | 1 to 10 | > 100 |  |  |
| COc1ccc2c(N)noc2n1 [Compound 41, 6-Methoxyisoxazolo[5,4-b]pyridin-3-amine] | > 100 | 1 to 10 | 10 to 100 | > 100 |  |  |
| Nc1noc2ncc(Cl)cc12 [Compound 8, 5-Chloroisoxazolo[5,4-b]pyridin-3-amine] |  |  | < 1 | > 100 |  |  |
| Nc1noc2nc(-c3cccs3)ccc12 [Compound 74, 6-(2-Thienyl)isoxazolo[5,4-b]pyridin-3-amine] | > 100 |  | 10 to 100 | > 100 |  |  |
| Nc1noc2ncc(I)cc12 [Compound 16, 5-Iodoisoxazolo[5,4-b]pyridin-3-amine] |  |  | < 1 | > 100 |  |  |
| Nc1noc2nc(-c3ccccc3)ccc12 [Compound 15, 6-Phenylisoxazolo[5,4-b]pyridin-3-amine] | > 100 |  | 10 to 100 | > 100 |  |  |
| Nc1noc2ncc([N+](=O)[O-])cc12 [Compound 49, 5-Nitroisoxazolo[5,4-b]pyridin-3-amine] |  |  | < 1 | > 100 |  |  |
| Nc1noc2nc(Oc3ccccc3Cl)ccc12 [Compound 84, 6-(2-Chlorophenoxy)isoxazolo[5,4-b]pyridin-3-amine] |  |  | 1 to 10 | > 100 |  |  |
| Nc1noc2nc(Oc3ccc(OC(F)(F)F)cc3)ccc12 [Compound 89, 6-(4-(Trifluoromethoxy)phenoxy)isoxazolo[5,4-b]pyridin-3-amine] |  |  |  | > 100 |  |  |
| Nc1noc2ncc(-c3ccccc3)cc12 [Compound 24, 5-Phenylisoxazolo[5,4-b]pyridin-3-amine] | > 100 | 10 to 100 | 1 to 10 | > 100 |  |  |

More lines, main results first:

| IC50 [1] [µM] | IC50 [2] [µM] | IC50 [4] [µM] | SMILES | IC50 at 24 h [3] [µM] | GI50 concentration in resistant clones (LLC-CR cells; LLC-CR cells) [µg/mL] | fold resistance of LLC-CR (LLC-CR cells; LLC-CR versus parental LLC) |
| --- | --- | --- | --- | --- | --- | --- |
| > 100 |  | < 1 | Cc1cnc2onc(N)c2c1 [Compound 44, 5-Methylisoxazolo[5,4-b]pyridin-3-amine] | > 100 |  |  |
|  |  | < 1 | Nc1noc2nc(Cl)c(Cl)cc12 [Compound 67, 5,6-Dichloroisoxazolo[5,4-b]pyridin-3-amine] | > 100 |  |  |
|  |  | < 1 | Nc1noc2ncc(Br)cc12 [Compound 6, 5-Bromoisoxazolo[5,4-b]pyridin-3-amine] | > 100 |  |  |
| < 1 |  | 1 to 10 | Cc1cc(Cl)nc2onc(N)c12 [Compound 42, 6-Chloro-4-methylisoxazolo[5,4-b]pyridin-3-amine] | > 100 |  |  |
|  |  | 10 to 100 | Cc1nc2onc(N)c2c(C)c1Cl [Compound 3, 5-Chloro-4,6-dimethylisoxazolo[5,4-b]pyridin-3-amine] | 10 to 100 |  |  |
|  |  | 10 to 100 | Cc1cc(C)c2c(N)noc2n1 [Compound 4, 4,6-Dimethylisoxazolo[5,4-b]pyridin-3-amine] | > 100 |  |  |
| > 100 |  | 1 to 10 | Cc1cc2c(N)noc2nc1C [Compound 45, 5,6-Dimethylisoxazolo[5,4-b]pyridin-3-amine] | > 100 |  |  |
|  | 1 to 10 | 10 to 100 | Cc1nc2onc(N)c2c(C)c1C [Compound 5, 4,5,6-Trimethylisoxazolo[5,4-b]pyridin-3-amine] | > 100 |  |  |
|  |  | 10 to 100 | Cc1nc2onc(N)c2c(C)c1Br [Compound 1, 5-Bromo-4,6-dimethylisoxazolo[5,4-b]pyridin-3-amine] | > 100 |  |  |
